Structures are written as SMILES. Like-named read-outs stand apart in the source and are kept apart here.

One data set deals with HIF-1α. Nature of the data set: HIF-1α inhibitory activity, hypoxia-response element-luciferase in HRE-A549 cells. In kind it is cell-based. The conditions noted are these: HRE-A549 cells, hypoxia-chamber 24 h, luciferase activity. Here is the method:
HRE-A549 cells stably transfected with hypoxia-response element-luciferase construct were incubated in Dulbecco's modified Eagle's medium. Following overnight serum deprivation, the cells were treated with or without Deguelin or example compounds. After 1 h incubation, the cells were incubated in hypoxia-chamber for 24 h at 37° C. Luciferase activity was measured by adding luciferase assay reagent (Promega, Madison, Wis.).

Data set [1] has as its system H1299 NSCLC (non-small cell lung cancer) cells. In words: Cancer cell growth inhibition (MTS). In kind it is cell-based. The note with it: Homo sapiens. As to the method:
To investigate the inhibitory effect of the compounds of Examples of the present invention on cancer cell growth, the following experiment was performed. Particularly, H1299 NSCLC (non-small cell lung cancer) cells were distributed in a 96-well plate at the density of 5×10^3 cells/well, followed by culture in a 37° C., 5% CO2 incubator for 24 hours. The compound of each example was dissolved in DMSO (10 nM, 100 nM, 1 μM, 10 μM), which was treated to each well. 48 hours later, cell growth was measured by using MTS reagent (3-(4,5-dimethylthiazole-2-yl)-5-(3-carboxymethoxyphenyl)-2-(4-sulfophenyl)-2H-tetrazolium). The experiment was performed in triplicate and the standard error of the analysis result was corrected.

A short description of data set [2]: Body weight of treated rats. In kind it is in vivo.
Data set [3] deals with retinal pigment epithelial cells. In kind it is cell-based, human. The text has this: (§1) We examined toxicity of example 28 compound at the cellular levels by testing the effects of example 28 compound on the viability of several normal cells, including human normal lung epithelial cells (HBE and BEAS-2B; FIG. 14), hippocampal cells (HT-22; FIG. 15), retinal pigment epithelial cells (FIG. 16), and vascular endothelial cells (HUVEC; FIG. 17).

The test system of data set [4] is lung cancer cells with or without anticancer drug resistance. In words: Anchorage-independent (soft agar) colony formation assay. Format: cell-based. The conditions noted are these: 2 weeks. The text has this:
(§2) H1299, H460, H292, and BEAS-2B cells were purchased from the ATCC. The other NSCLC cells were kindly provided by Dr. John V. Heymach (MD Anderson Cancer Center, Houston, Tex.). HUVECs were purchased from Invitrogen. Human bronchial epithelial (HBE) cells were kindly provided by Dr. John Minna (The University of Texas Southwestern Medical Center, Dallas, Tex.). Human retinal pigment epithelial (RPE) cells were kindly provided by Dr. Jeong Hun Kim (College of Medicine, Seoul National University, Seoul, Republic of Korea). HT-22 cells were provided by Dr. Dong Gyu Jo (College of Pharmacy, Sungkyunkwan University, Suwon, Republic of Korea). Cell lines were authenticated and validated at the Korean Cell Line Bank using AmplFLSTR identifier PCR Amplification Kit (Applied Biosystems; cat. No. 4322288) in 2013. Cells passed for fewer than 6 months after receipt or resuscitation of validated cells were used in this study.
HT-22 and RPE cells were cultured in DMEM supplemented with 10% fetal bovine serum (FBS) and antibiotics. […]
For the anchorage-independent colony formation assay, the cells were mixed with sterile 1% agar solution (final concentration of 0.4%) and then poured onto 1% base agar in 24-well plates. […] After incubation, the colonies were stained with MTT solution and then photographed and counted.

Data set [5] has the same test system. Nature of the data set: Anchorage-dependent colony formation assay. Format: cell-based. The conditions noted are these: increasing concentrations, 2 weeks.
From the text: as §2
HT-22 and RPE cells were cultured in DMEM supplemented with 10% fetal bovine serum (FBS) and antibiotics. Other cancer cells were cultured in RPMI 1640 medium supplemented with 10% FBS and antibiotics. […]
For the anchorage-dependent colony formation assay, cells were seeded onto 6-well plates at a density of 300 cells/well and then treated with increasing concentrations of example 28 compound (“SH” in FIG. 11) for 2 weeks. […] The colonies were photographed and counted.

The test system of data set [6] is human umbilical vein endothelial cells (HUVECs). In words: Vascular endothelial cell proliferation, [3H]-thymidine incorporation, conditioned media of hypoxic HCT116. In kind it is cell-based. The note with it: conditioned media of HCT116 treated at 1˜100 nM under hypoxia; HUVECs 18 hours. As to the method: (§3) First, HCT116, the human colorectal cancer cell line, was cultured in a hypoxic chamber (1% O2) as the in vitro hypoxic model. The cells were treated with deguelin, compound 69 (Example 33) and compound 54 (Example 28) at the concentrations of 1˜100 nM, followed by culture for 8 hours. Next, the culture fluid was collected and proceeded to centrifugation at 4° C. for 10 minutes (6,000×g). Cell culture fluid was obtained from the supernatant (conditioned media (CM)). The obtained cell culture fluid was treated to human umbilical vein endothelial cells (HUVECs) which were cultured separately. Then changes of angiogenesis were investigated by the following experiments.
The cell culture fluid prepared in the above preparation stage was treated to umbilical vein endothelial cells (HUVECs) for 18 hours. Cell proliferation was confirmed by [^3H]-thymidine incorporation assay.

The test system of another data set is HUVECs. Nature of the data set: HUVEC tube formation with conditioned medium from treated H1299 cells. In kind it is cell-based. The note with it: CM from H1299 cells treated under normoxic or hypoxic conditions. Here is the method: H1299 cells were treated with example 28 compound (“SH” in FIG. 13) or deguelin for 1 d and then further incubated under normoxic or hypoxic conditions for 4 h. After incubation, the drug-containing medium was discarded and fresh serum-free medium was added to cell and further incubated for 24 h. After incubation, the conditioned medium (CM) was collected.
Briefly, the HUVECs were diluted in complete medium and seeded onto CellBIND surface 96-well plates (Corning). The cells were treated with the CM. The morphological changes of the HUVECs were photographed and scored.

In data set [7] the test system is vascular endothelial cells (HUVEC). Format: cell-based.
From the text: as §1

Data set [8] relates to human normal lung epithelial cells (HBE and BEAS-2B). Format: cell-based.
From the text: as §1

Data set [9] deals with hippocampal cells (HT-22). Format: cell-based.
From the text: as §1

The test system of data set [10] is human umbilical vein endothelial cells (HUVECs). In words: Vascular endothelial cell tube formation, conditioned media of hypoxic HCT116. The conditions noted are these: conditioned media of treated HCT116; 30 hours. In kind it is cell-based. As to the method: as §3
Umbilical vein endothelial cells (HUVECs) were treated with the cell culture fluid obtained in the above preparation stage. 30 hours later, tube formation was observed. As a result, tube formation was induced by the control deguelin and the compounds of the present invention.

Data set [11] relates to human bronchial epithelial cells (HBEC-1 and BEAS-2B). In words: Cytotoxicity to normal cells (MTT). In kind it is cell-based. The conditions noted are these: 3 days. As to the method:
To investigate the cytotoxicity of the control deguelin, the compound 69 (Example 33), and the compound 54 (Example 28) to the normal cells, it was examined how these compounds affect the proliferation of human bronchial epithelial cells (HBEC-1 and BEAS-2B).
Particularly, HBEC-1 and BEAS-2B cells were seeded on a 96-well culture plate (5,000 cells/well), followed by culture for 24 hours. The plate was treated with 0.1% DMSO (comparative control (CT)), 1 μM of deguelin (control), or […] of the compound 69 (Example 33) and the compound 54 (Example 28) (experimental group), followed by further culture for 3 days. Cytotoxicity was evaluated by MTT assay.

Data set [12] deals with human umbilical vein endothelial cells (HUVECs). Nature of the data set: Vascular endothelial cell migration, trans-well, conditioned media of hypoxic HCT116. In kind it is cell-based. The conditions noted are these: cell culture fluid treated at 100 nM; 4 hours. Here is the method: as §3
The cell culture fluid obtained in the above preparation stage was loaded in the lower chamber of trans-well plate (6.5 mm diameter filter) and umbilical vein endothelial cells (HUVECs) were plated carefully in the upper chamber, followed by culture at 37° C. for 4 hours. The cells migrated down the filter were confirmed by H&E staining.

For data set [13] the following is noted: previous study; decreased tyrosine hydroxylase immunoreactivity; cited from earlier work.
[14] abbreviates: NCI-H1299, 48 hours, MTS reagent.

What is called IC50 is the concentration that inhibits the measured activity by half. As to `COc1cc2c(cc1OC)[C@@H]1C(=O)c3ccc4c(c3O[C@@H]1CO2)C=CC(C)(C)O4` [Comparative Example 1 (Deguelin), (7aS,13aS)-9,10-Dimethoxy-3,3-dimethyl-13,13a-dihydro-3H-chromeno[3,4-b]pyrano[2,3-h]chromen-7(7aH)-one, reference compound], the IC50 is 0.166 µM with HIF-1α and 0.11 µM in data set [1] (setting [14]).

Regarding `COc1ccc(CC(=O)c2ccc3c(c2OC)C=CC(C)(C)O3)cc1OC` [Example 28, 2-(3,4-Dimethoxyphenyl)-1-(5-methoxy-2,2-dimethyl-2H-chromen-6-yl)ethanone], in [2] (rat, in vivo), the “body weight of rats” value was “minimal influence on the body weight of rats”. The “cytotoxicity compared with deguelin” value in [3], in data set [7], in data set [8] and in data set [9] was “significantly reduced cytotoxicity” throughout. The anchorage-independent colony formation result in data set [4] was “remarkably superior anticancer effect”. Besides, the anchorage-dependent colony formation entry in [5] is listed as “remarkably superior anticancer effect”. The “proliferation of vascular endothelial cells” value in [6] is recorded as “inhibited the proliferation of vascular endothelial cells dose-dependently”. The “tube formation of HUVECs” value with HUVECs is listed as “formed significantly fewer tubes”. Further, the IC50 in the data set on HIF-1α was determined as 2.15 µM; in data set [1] (setting [14]), 0.14 µM.

With `COc1c(C(=O)Cc2ccc(C(F)(F)F)cc2)ccc2c1C=CC(C)(C)O2` [Example 75, 1-(5-methoxy-2,2-dimethyl-2H-chromen-6-yl)-2-(4-(trifluoromethyl)phenyl)ethanone], the IC50 in the data set with HIF-1α (read-out: IC50) turned out to be 0.604 µM.

In the case of `COc1cccc(CC(=O)c2ccc3c(c2OC)C=CC(C)(C)O3)c1` [Example 76, 1-(5-methoxy-2,2-dimethyl-2H-chromen-6-yl)-2-(3-methoxyphenyl)ethanone], the IC50 in the data set with HIF-1α (read-out: IC50) stood at 0.83 µM.

As for `COc1c(C(=O)Cc2cccc(O)c2)ccc2c1C=CC(C)(C)O2` [Example 83, 2-(3-hydroxyphenyl)-1-(5-methoxy-2,2-dimethyl-2H-chromen-6-yl)ethanone], the IC50 in the data set with HIF-1α (read-out: IC50) is 1.45 µM.

For the molecule `COc1c(C(=O)Cc2ccccc2O)ccc2c1C=CC(C)(C)O2` [Example 84, 2-(2-hydroxyphenyl)-1-(5-methoxy-2,2-dimethyl-2H-chromen-6-yl)ethanone], the IC50 in the data set with HIF-1α (read-out: IC50) stood at 0.943 µM.

Take `COc1c(C(=O)Cc2ccc(O)cc2)ccc2c1C=CC(C)(C)O2` [Example 85, 2-(4-hydroxyphenyl)-1-(5-methoxy-2,2-dimethyl-2H-chromen-6-yl)ethanone]: the IC50 in the data set on HIF-1α (read-out: IC50) was found to be 0.791 µM.

As for `COc1ccc(CC(=O)c2ccc3c(c2OC)C=CC(C)(C)O3)cc1OC` [compound 54, 2-(3,4-Dimethoxyphenyl)-1-(5-methoxy-2,2-dimethyl-2H-chromen-6-yl)ethanone], in data set [10], the “inhibitory effect on tube formation” value is “greater than that of the control deguelin”. For the same molecule, the cell survival rate result in data set [11] (human, 1 μM) is recorded as “approximately 80%”. The molecule further gave an IC50 in data set [1] (NCI-H1299, value repeated in text) of 0.14 µM. Besides, the “migration of vascular endothelial cells” value in data set [12] is “showed the inhibitory effect on the migration of vascular endothelial cells”.

With `COc1ccc([C@H](C)C(=O)c2ccc3c(c2OC)C=CC(C)(C)O3)cc1OC` [compound 69, (S)-2-(3,4-Dimethoxyphenyl)-1-(5-methoxy-2,2-dimethyl-2H-chromen-6-yl)propan-1-one], in data set [10], the “inhibitory effect on tube formation” value was “greater than that of the control deguelin”. Besides, in data set [11] (human, 1 μM), the cell survival rate result is listed as “approximately 80%”. For the same molecule, in data set [6], the “proliferation of vascular endothelial cells” value is given as “inhibited the proliferation of vascular endothelial cells dose-dependently”. The “migration of vascular endothelial cells” value in [12] was “showed the inhibitory effect on the migration of vascular endothelial cells”.

In the case of `COc1cc2c(cc1OC)[C@@H]1C(=O)c3ccc4c(c3O[C@@H]1CO2)C=CC(C)(C)O4` [deguelin, Deguelin, reference compound], in data set [2] (compared with control), the “body weight of rats” value is on record as “significantly reduced”. The “toxicity in the rat brain” value in [13] is reported as “caused parkinsonism-like syndrome”. Besides, the cell survival rate result in [11] (HBEC-1 and BEAS-2B, 1 μM of deguelin, MTT) is recorded as “approximately 60%”.

These data come from patent US9745280B2, “Compound or pharmaceutically acceptable salt thereof, and pharmaceutical composition containing same as active ingredient” (SNU R&DB FOUNDATION, priority 2012, dated 2017).
